Laboratory results reported in patent publication US10287276B2, “Heteroaryl-1,2,4-triazole and heteroaryl-tetrazole compounds for controlling ectoparasites” (Elanco Tiergesundheit AG, priority 2016, dated 2019).

Experiments:
[1] = system: Ctenocephalides Felis (Cat Flea); experiment: Activity in vitro against Ctenocephalides felis (cat flea), Assay B; conditions: % mortality at 48 hours post infestation; for pest or weed control at 10 ppm: Ctenocephalides felis, at 10 ppm in bovine blood, read-out: efficacy (EC50)
Description: Activity In Vitro Against Ctenocephalides Felis (Cat Flea)—Assay B
Test compounds are added to organic bovine blood contained in an artificial feeding container. Compounds with known insecticidal activity are included to serve as positive controls. Newly emerged unfed adult fleas from a laboratory colony are aspirated into each vial. The test cages are maintained using the artificial feeding apparatus to allow ingestion of compound. Fleas are evaluated for % mortality at 48 hours post infestation. Fleas showing normal movement and/or jumping ability are considered viable and those showing no movement are scored as dead.

[2] = system: Lucilla Cuprina (Australian Sheep Blowfly); experiment: Activity in vitro against Lucilla cuprina (Australian sheep blowfly), Assay B; set-up: species or system L. cuprina; conditions: larvae, percent mortality at 24 hours; for pest or weed control at 10 ppm: Lucilia cuprina, compound in bovine serum, read-out: efficacy (EC50)
Description: Activity In Vitro Against Lucilla Cuprina (Australian Sheep Blowfly)—Assay B
Compound formulated in bovine serum is dispensed into scintillation. A dental cotton roll is added to each vial to absorb the compound solution. L. cuprina larvae are added to each treatment vial. The vials are capped and held for 24 hours in an environmental chamber at appropriate temperature, humidity and light/dark cycles. Evaluations are only made at 24 hours because dead larvae after 24 hours may be cannibalized by the remaining live ones. Vials are examined for percent mortality.

[3] = system: Rhipicephalus sanguineus (Dog Tick); experiment: Activity in vitro against Rhipicephalus sanguineus (dog tick), Assay B, coated glass vials; conditions: contact with coated vials, assessment at 48 hours; for pest or weed control at 20 ppm: Rhipicephalus sanguineus, read-out: efficacy (EC50)
Description: Activity In Vitro Against Rhipicephalus sanguineus (Dog Tick)—Assay B
A solution of the test compounds is used to coat the inner wall of glass vials containing a filter paper on the bottom of each vial. A second filter paper is also coated and placed in the cap of the vial. Vials and caps are allowed to dry overnight. Each treated vial is infested with ticks. Contact of the ticks with residues is induced by holding the vials in a controlled environment and assessment is performed at 48 hours after application in comparison with untreated glass vials and solvent-treated glass vials.

SMILES | pest or weed control at 10 ppm [1] | pest or weed control at 10 ppm [2] | pest or weed control at 20 ppm [3] | EC50 [1] | EC50 [2] | EC50 [3]
C#CCN(C(=O)c1cc(C#N)cc(C(F)(F)F)c1)C(C)c1ncnn1-c1ncccn1 (stereo not drawn) [Example 58, 3-Cyano-N-prop-2-ynyl-N-[1-(2-pyrimidin-2-yl-1,2,4-triazol-3-yl)ethyl]-5-(trifluoromethyl)benzamide] | > 50% | > 50% | > 50% | – | – | –
Cc1nc(C(C)N(CC2CC2)C(=O)c2cc(C(F)(F)F)cc(C(F)(F)F)c2)n(-c2ncccn2)n1 (stereo not drawn) [Example 61, N-(Cyclopropylmethyl)-N-[1-(5-methyl-2-pyrimidin-2-yl-1,2,4-triazol-3-yl)ethyl]-3,5-bis(trifluoromethyl)benzamide] | > 50% | > 50% | > 50% | – | – | –
C[C@H](NC(=O)c1cccc(C#N)c1)c1ncnn1-c1ncc(F)cn1 [Example 68, 3-Cyano-N-[(1S)-1-[2-(5-fluoropyrimidin-2-yl)-1,2,4-triazol-3-yl]ethyl]benzamide] | > 50% | > 50% | > 50% | – | – | –
CC(c1ncnn1-c1ncccn1)N(CC1CC1)C(=O)c1cc(C#N)cc(C(F)(F)F)c1 (stereo not drawn) [Example 50, 3-Cyano-N-(cyclopropylmethyl)-N-[1-(2-pyrimidin-2-yl-1,2,4-triazol-3-yl)ethyl]-5-(trifluoromethyl)benzamide] | > 50% | > 50% | > 50% | – | – | –
C[C@@H](c1ncnn1-c1ncccn1)N(CC1CC1)C(=S)c1cc(C(F)(F)F)cc(C(F)(F)F)c1 [Example 70] | > 50% | > 50% | > 50% | – | – | –
C[C@H](NC(=O)c1cc(C(F)(F)F)cc(C(F)(F)F)c1)c1ncnn1-c1ncc(F)cn1 [Example 69, N-[(1S)-1-[2-(5-Fluoropyrimidin-2-yl)-1,2,4-triazol-3-yl]ethyl]-3,5-bis(trifluoromethyl)benzamide] | > 50% | > 50% | > 50% | – | – | –
C[C@@H](c1ncnn1-c1ncccn1)N(C)C(=O)c1cc(C(F)(F)F)cc(C(F)(F)F)c1 [Example 75, N-Methyl-N-[(1S)-1-(2-pyrimidin-2-yl-1,2,4-triazol-3-yl)ethyl]-3,5-bis(trifluoromethyl)benzamide] | > 50% | > 50% | > 50% | – | – | –
CCN(C(=O)c1cc(C#N)cc(C(F)(F)F)c1)C(C)c1ncnn1-c1ncccn1 (stereo not drawn) [Example 59, 3-Cyano-N-ethyl-N-[1-(2-pyrimidin-2-yl-1,2,4-triazol-3-yl)ethyl]-5-(trifluoromethyl)benzamide] | > 50% | > 50% | > 50% | 1.6 ppm | 0.77 ppm | 14 ppm
CC(c1ncnn1-c1ncccn1)N(C[Si](C)(C)C)C(=O)c1cc(C(F)(F)F)cc(C(F)(F)F)c1 (stereo not drawn) [Example 67, N-[1-(2-pyrimidin-2-yl-1,2,4-triazol-3-yl)ethyl]-3,5-bis(trifluoromethyl)-N-(trimethylsilylmethyl)benzamide] | > 50% | > 50% | > 50% | – | – | –
CC(c1ncnn1-c1ncccn1)N(C)C(=O)c1cc(C#N)cc(C(F)(F)F)c1 (stereo not drawn) [Example 60, 3-Cyano-N-methyl-N-[1-(2-pyrimidin-2-yl-1,2,4-triazol-3-yl)ethyl]-5-(trifluoromethyl)benzamide] | > 50% | > 50% | > 50% | – | – | –
CC(NC(=O)c1cc(C(F)(F)F)cc(C(F)(F)F)c1)c1ncnn1-c1ncccn1 (stereo not drawn) [Example 63, N-[1-(2-Pyrimidin-2-yl-1,2,4-triazol-3-yl)ethyl]-3,5-bis(trifluoromethyl)benzamide] | > 50% | > 50% | > 50% | – | – | –
CC(c1ncnn1-c1ncccn1)N(C)C(=O)c1cc(C(F)(F)F)cc(C(F)(F)F)c1 (stereo not drawn) [Example 65, N-Methyl-N-[1-(2-pyrimidin-2-yl-1,2,4-triazol-3-yl)ethyl]-3,5-bis(trifluoromethyl)benzamide] | > 50% | > 50% | > 50% | – | – | –
